Measurements as given in ChEMBL document CHEMBL2010744, “Pyridyl aminothiazoles as potent inhibitors of Chk1 with slow dissociation rates” (Bioorg Med Chem Lett, 2012).
The source made the active and inactive calls. The rule behind the calls is not given here.

Target: T1, Serine/threonine-protein kinase Chk1 (Homo sapiens, UniProt O14757)
T1 sequence (O14757 whole entry): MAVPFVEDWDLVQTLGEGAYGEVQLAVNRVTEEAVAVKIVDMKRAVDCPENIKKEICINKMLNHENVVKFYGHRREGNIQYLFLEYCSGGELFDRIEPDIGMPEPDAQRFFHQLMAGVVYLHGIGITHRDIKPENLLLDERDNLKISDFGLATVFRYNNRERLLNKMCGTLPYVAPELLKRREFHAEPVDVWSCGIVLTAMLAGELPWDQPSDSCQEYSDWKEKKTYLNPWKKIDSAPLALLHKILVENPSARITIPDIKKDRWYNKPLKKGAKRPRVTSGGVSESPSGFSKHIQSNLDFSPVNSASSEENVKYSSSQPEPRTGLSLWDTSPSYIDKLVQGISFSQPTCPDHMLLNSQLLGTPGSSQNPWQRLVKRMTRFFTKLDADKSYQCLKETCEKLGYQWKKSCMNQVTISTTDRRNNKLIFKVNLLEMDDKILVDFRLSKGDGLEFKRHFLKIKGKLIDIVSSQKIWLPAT
Experiment: Competitive inhibition of Chk1 in presence of higher ATP levels

| IC50 [nM] | SMILES |
| --- | --- |
| 320 | NC/C=C/c1cncc(-c2cnc(Nc3cc(N4CCOCC4)ccn3)s2)c1 |
| 0.4 | NCCNC(=O)c1cncc(-c2cnc(Nc3cc(CN4CCOCC4)ccn3)s2)c1 |
| 47 | CS(=O)(=O)N1CCN(c2ccnc(Nc3ncc(-c4cncnc4)s3)c2)CC1 |
| 37 | c1ncc(-c2cncc(-c3cnc(Nc4cc(N5CCOCC5)ccn4)s3)c2)cn1 |
| 0.05 | NCCNC(=O)c1cncc(-c2cnc(Nc3cc(N4CCC(F)(F)CC4)ccn3)s2)c1 |
| 113 | Cc1ccc(-c2cnc(Nc3cc(N4CCN(S(C)(=O)=O)CC4)ccn3)s2)cn1 |
| 0.27 | NCCC(=O)c1cncc(-c2cnc(Nc3cc(N4CCOCC4)ccn3)s2)c1 |
| 0.03 | CS(=O)(=O)N1CCN(c2ccnc(Nc3ncc(-c4cncc(C(=O)NCCN)c4)s3)c2)CC1 |
| 35 | c1cc(N2CCOCC2)cc(Nc2ncc(-c3cncc(-c4cn[nH]c4)c3)s2)n1 |
| 37 | Cc1ccc(-c2cnc(Nc3cc(N4CCNCC4)ccn3)s2)cn1 |
| 120 | Cc1ncc(-c2cnc(Nc3cccc(N4CCNCC4)n3)s2)cn1 |
| 0.05 | NCCNC(=O)c1cncc(-c2cnc(Nc3cc(N4CCNCC4)ccn3)s2)c1 |
| 29 | Cc1ncc(-c2cnc(Nc3cc(N4CCNCC4)ccn3)s2)cn1 |
| 1 | CNCCNC(=O)c1cncc(-c2cnc(Nc3cc(N4CCOCC4)ccn3)s2)c1 |
| 6 | OCC#Cc1cncc(-c2cnc(Nc3cc(N4CCOCC4)ccn3)s2)c1 |
| 520 | c1ccc(-c2cnc(Nc3cc(N4CCNCC4)ccn3)s2)cc1 |

| IC50 [nM] | SMILES |
| --- | --- |
| 350 | COc1ncccc1-c1cncc(-c2cnc(Nc3cc(N4CCOCC4)ccn3)s2)c1 |
| 0.03 | CC(=O)N1CCN(c2ccnc(Nc3ncc(-c4cncc(C(=O)NCCN)c4)s3)c2)CC1 |
| 8 | c1cc(N2CCNCC2)cc(Nc2ncc(-c3cncc(-c4cn[nH]c4)c3)s2)n1 |
| 29 | Cc1ncc(-c2cnc(Nc3cccc(NCCCN)n3)s2)cn1 |
| > 1050 | Brc1cccc(-c2cnc(Nc3cc(N4CCNCC4)ccn3)s2)c1 |
| 90 | OCCNc1ccnc(Nc2ncc(-c3cncnc3)s2)c1 |
| 60 | COc1ncc(-c2cncc(-c3cnc(Nc4cc(N5CCOCC5)ccn4)s3)c2)cn1 |
| 1.4 | NCCCNC(=O)c1cncc(-c2cnc(Nc3cc(N4CCOCC4)ccn3)s2)c1 |
| 49 | OCC1CN(c2ccnc(Nc3ncc(-c4cccnc4)s3)c2)CCO1 (stereo not drawn) |
| 35 | N#Cc1cncc(-c2cnc(Nc3cc(N4CCNCC4)ccn3)s2)c1 |
| 440 | N#Cc1cncc(-c2cnc(Nc3cc(N4CCOCC4)ccn3)s2)c1 |
| 12 | NCCCc1cncc(-c2cnc(Nc3cc(N4CCOCC4)ccn3)s2)c1 |
| 206 | CC(=O)N1CCN(c2ccnc(Nc3ncc(-c4ccc(C)nc4)s3)c2)CC1 |
| 60 | Cc1ncc(-c2cnc(Nc3cc(N4CCOCC4)ccn3)s2)cn1 |
| 19 | c1cncc(-c2cncc(-c3cnc(Nc4cc(N5CCOCC5)ccn4)s3)c2)c1 |

Target: T2, Serine/threonine-protein kinase Chk1 (Homo sapiens) (UniProt O14757)
T2 sequence (whole entry): T1 sequence (O14757 whole entry)
Experiment: Inhibition of immobilized Chk1 at 11 nM incubated for 30 mins followed by 24 hrs washout by HTRF assay

| inhibition | SMILES |
| --- | --- |
| Active | NCCNC(=O)c1cncc(-c2cnc(Nc3cc(N4CCC(F)(F)CC4)ccn3)s2)c1 |

Target: T2, Serine/threonine-protein kinase Chk1 (Homo sapiens)
Experiment: Competitive inhibition of immobilized Chk1 at 11 nM incubated for 30 mins followed by 24 hrs washout by HTRF assay in presence of 100 uM ATP

| inhibition | SMILES |
| --- | --- |
| Active | NCCNC(=O)c1cncc(-c2cnc(Nc3cc(N4CCC(F)(F)CC4)ccn3)s2)c1 |
